Source: patent US8557844B2, “Substrate reduction therapy” (The Chancellor, Masters and Scholars of the University of …, priority 2007, dated 2013)
“Also recorded” adds a separate entry of the source.

Tests used:
[1] = target: T1, human α-1,3-fucosyltransferase V (Homo sapiens, UniProt Q11128); conditions: in the presence of guanosine diphosphate (GDP); cited from earlier work
T1 sequence (Q11128 1-374): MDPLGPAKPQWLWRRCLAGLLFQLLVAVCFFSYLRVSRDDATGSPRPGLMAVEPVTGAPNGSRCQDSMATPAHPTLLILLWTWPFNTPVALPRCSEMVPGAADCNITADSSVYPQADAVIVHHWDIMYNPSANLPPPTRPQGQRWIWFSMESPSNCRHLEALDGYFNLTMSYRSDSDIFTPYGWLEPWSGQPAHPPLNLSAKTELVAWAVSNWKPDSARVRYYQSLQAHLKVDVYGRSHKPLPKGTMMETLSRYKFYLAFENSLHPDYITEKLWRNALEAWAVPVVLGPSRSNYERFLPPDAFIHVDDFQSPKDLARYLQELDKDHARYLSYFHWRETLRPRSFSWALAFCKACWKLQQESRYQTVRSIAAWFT

sialyltransferase = conditions: cited from earlier work
[2] = tested on: free cholesterol storage and abnormal lipid endocytosis; conditions: cited from earlier work
rat recombinant α-2,3-ST = conditions: rat recombinant enzyme; read-out: IC(50), α-2,3-ST; cited from earlier work
rat recombinant α-2,6-ST = target: T2, rat recombinant α-2,6-ST (Rattus norvegicus, UniProt P13721); conditions: rat recombinant enzyme; read-out: IC(50), α-2,6-ST; cited from earlier work
T2 sequence (P13721 1-403): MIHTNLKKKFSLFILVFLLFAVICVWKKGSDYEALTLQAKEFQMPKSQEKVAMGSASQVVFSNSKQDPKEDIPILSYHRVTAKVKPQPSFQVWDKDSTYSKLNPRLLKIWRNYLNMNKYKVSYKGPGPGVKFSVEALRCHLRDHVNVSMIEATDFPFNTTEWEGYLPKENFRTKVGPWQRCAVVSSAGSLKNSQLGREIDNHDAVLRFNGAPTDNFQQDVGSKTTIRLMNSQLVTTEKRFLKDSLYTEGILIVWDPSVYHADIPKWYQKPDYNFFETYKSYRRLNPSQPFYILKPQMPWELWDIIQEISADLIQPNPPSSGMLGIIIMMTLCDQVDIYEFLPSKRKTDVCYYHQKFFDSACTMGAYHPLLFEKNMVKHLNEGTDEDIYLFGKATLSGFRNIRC

[3] = cited from earlier work
[4] = tested on: peripheral blood B lymphocytes; conditions: NPC patient, B cells over 6 months; cited from earlier work
mammalian cells = conditions: liposomes of dioleoylphosphatidylethanolamine and cholesteryl hemisuccinate; cited from earlier work
[5] = interim data after 12 months of a 2-year trial; cited from earlier work
[6] = tested on: NPC1 null (CT43) CHO cells; conditions: NB-DNJ treatment; cited from earlier work
GSL levels = conditions: mice; cited from earlier work
[7] = tested on: NPC1 null (CT43) CHO cells; conditions: NB-DNJ treatment; cited from earlier work; remark: listed apart in the source
RAW mouse macrophages [8] = assay: BODIPY-LacCer transport in RAW cells treated with AY9944; format: cell-based
Description: (§1) RAW mouse macrophages grown in medium supplemented with LPDS for 5 days to elevate endogenous cholesterol biosynthesis were treated with […] AY9944 in medium supplemented with lipoprotein deficient serum (LPDS) for a further 5 or 10 days to induce storage of 7-DHC. […] This correlated with abnormal transport of a fluorescent GSL analogue of lactosylceramide (LacCer)—BODIPY-LacCer.
(§2) FIG. 4 consists of micrographs which together show the induction of an NPC phenotype in cholesterol null RAW cells. All RAW cells were grown in medium supplemented with LPDS for 5 days (controls) to reduce exogenously derived cholesterol prior to addition of 1 μM AY9944 to inhibit endogenous cholesterol synthesis for a further 5 days or 10 days (as indicated). Alterations in sphingolipid trafficking were measured in live cells using BODIPY-LacCer (lower panels), cholesterol levels in fixed cells were measured with filipin (upper panels). Endocytic cholesterol storage in cholesterol depleted cells was induced by growth in medium supplemented with 10% FCS for a further 24 h. For each condition n=2, images are representative of at least 10 captured fields, scale bar=5 μm.

RAW mouse macrophages [9] = assay: Cholesterol levels (filipin) in RAW cells treated with AY9944; format: cell-based; conditions: for cholesterol levels (filipin): 1 mM AY9944 in LPDS medium
Description: as §1, §2

[10] = target: T3, 3β-hydroxysterol Δ7-reductase (Mus musculus, UniProt O88455); conditions: cited from earlier work
T3 construct: RAW mouse macrophages grown in medium supplemented with LPDS for 5 days to elevate endogenous cholesterol biosynthesis; endogenous in cells; host or cells: RAW mouse macrophages
T3 sequence (O88455 1-471): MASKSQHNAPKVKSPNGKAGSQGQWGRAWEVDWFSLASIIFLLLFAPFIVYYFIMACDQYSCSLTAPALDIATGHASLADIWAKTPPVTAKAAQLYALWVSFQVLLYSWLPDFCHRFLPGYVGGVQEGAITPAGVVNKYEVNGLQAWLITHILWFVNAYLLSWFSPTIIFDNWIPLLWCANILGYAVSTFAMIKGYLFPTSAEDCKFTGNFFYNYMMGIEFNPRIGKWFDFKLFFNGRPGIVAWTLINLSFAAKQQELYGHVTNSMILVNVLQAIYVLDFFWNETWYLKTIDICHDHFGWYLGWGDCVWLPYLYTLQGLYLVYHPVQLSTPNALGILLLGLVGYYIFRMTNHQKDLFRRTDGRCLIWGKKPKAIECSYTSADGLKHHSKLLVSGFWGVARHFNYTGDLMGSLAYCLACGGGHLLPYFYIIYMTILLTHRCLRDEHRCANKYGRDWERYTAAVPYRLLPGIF

For CCCO[C@H]1O[C@H](CO)[C@@H](O[C@@H]2O[C@H](CO)[C@H](O)[C@H](O)[C@H]2O)[C@H](OCCN2C(C)C(O)C(O)C(O)C2CO)[C@H]1NC(C)=O (stereo partly drawn) [propyl 2-acetamido-2-deoxy-4-O-(β-D-galactopyranosyl)-3-O-(2-(N-(β-L-homofuconojirimycinyl))ethyl)-α-D-glucopyranoside], which “inhibition of human α-1,3-fucosyltransferase V” value [1] is on record?
Its value is “effective inhibitor”.

With C[C@@H]1O[C@@H](O[C@H]2[C@H](O[C@H]3[C@H](O[C@H]4CC[C@@]5(C)[C@@H](CC[C@]6(C)[C@@H]5CC=C5[C@@H]7CC(C)(C)C[C@@H](O)[C@]7(C)CC[C@]56C)[C@@]4(C)CO)O[C@H](C(=O)O)[C@@H](O)[C@@H]3O)O[C@H](CO)[C@H](O)[C@@H]2O)[C@H](O)[C@H](O)[C@H]1O [Soyasaponin I] as the molecule, how does the sialyltransferase inhibition (sialyltransferase) read?
Its sialyltransferase inhibition is “potent and specific sialyltransferase inhibitor”.

For CCN(CC)CCO[C@H]1CC[C@@]2(C)C(=CC[C@@H]3[C@@H]2CC[C@]2(C)C(=O)CC[C@@H]32)C1 [Compound U18666A], which “free cholesterol storage and lipid endocytosis” value [2] is on record?
Its value is “induce free cholesterol storage and abnormal lipid endocytosis”.

And the “induction of NPC1 phenotype” value [2]?
Its value is “can induce an NPC1 phenotype”.

With CC(C)CCC[C@@H](C)[C@H]1CC[C@H]2[C@@H]3C(=O)C=C4C[C@@H](O)CC[C@]4(C)[C@H]3CC[C@]12C [7-ketocholesterol] as the molecule, how does the “free cholesterol storage and lipid endocytosis” value [2] read?
Its value is “induce free cholesterol storage and abnormal lipid endocytosis”.

What does the source list for cytidin-5′-yl sialylethylphosphonate?
IC50 (rat recombinant α-2,3-ST): 47 µM; IC50 (rat recombinant α-2,6-ST): 340 µM

For CCCCN1C[C@H](O)[C@@H](O)[C@H](O)[C@H]1CO [NB-DNJ, N-butyldeoxynojirimycin], which neurological side effects ([3]; adult mice) is on record?
Its neurological side effects is “not to cause neurological side effects”.

And the CNS penetration ([3]; mouse, in vivo)?
Its CNS penetration is “penetrate the CNS”.

And the “effects on behaviour or CNS development” value ([3]; mouse, in vivo)?
The value was “without significant effects on behaviour or CNS development”.

What about the endosomal uptake [4] of the same molecule?
The endosomal uptake was “improved endosomal uptake”.

What about the “lipid trafficking in peripheral blood B lymphocytes” value [4] of the same molecule?
Its value is “greatly improved”.

What about the pathological lipid storage [4] of the same molecule?
The pathological lipid storage was “reduced”.

What about the “total late endosomal/lysosomal compartment” value [4] of the same molecule?
Its value is “almost normalised”.

And the “factor by which liposomes reduced the required dose” value (mammalian cells)?
Its value is 1000.

And the “clinical benefit, saccadic eye movement” value [5]?
Its value is “stabilization or improvement in saccadic eye movement”.

What about the “endocytosis in NPC1 cells” value [6] of the same molecule?
The value was “corrects abnormal endocytosis”.

What about the “decrease in GSL levels (onset)” value (GSL levels) of the same molecule?
Its value is “measurable decrease in GSL levels within a day of treatment”.

And the “treatment time after which effect on GSL levels stabilizes” value (GSL levels)?
Its value is 10 days.

And the “GSL storage in NPC1 cells” value [7]?
The value was “reduction in GSL storage in the endo/lysosomal system; also recorded: lowers GSL storage in NPC1 cells to control levels”.

Which results are given for Clc1ccccc1CNCC1CCC(CNCc2ccccc2Cl)CC1 (centres unmarked) [AY9944]?
BODIPY-LacCer transport (RAW mouse macrophages [8]; 5 days post AY9944, 30 min pulse, 90 min chase): transported to the Golgi; BODIPY-LacCer transport (RAW mouse macrophages [8]; 10 days post AY9944): trapped in punctate LE/Lys; cholesterol levels (filipin) (RAW mouse macrophages [9]; 5 days): slight decrease in cholesterol levels; cholesterol levels (filipin) (RAW mouse macrophages [9]; 10 days): markedly reduced; localisation of exogenously derived cholesterol (RAW mouse macrophages [9]; 10 day AY9944, then medium with 10% FCS): exogenously derived cholesterol became trapped in punctate LE; 7-DHC level [10]: accumulation of 7-DHC

For CC(=O)[C@H]1CC[C@H]2[C@@H]3CCC4=CC(=O)CC[C@]4(C)[C@H]3CC[C@]12C [progesterone], which “free cholesterol storage and lipid endocytosis” value [2] is on record?
The value was “induce free cholesterol storage and abnormal lipid endocytosis”.

And the “induction of NPC1 phenotype” value [2]?
The value was “can induce an NPC1 phenotype”.

For CN(C)CCCN1c2ccccc2CCc2ccccc21 [imipramine], which “free cholesterol storage and lipid endocytosis” value [2] is on record?
Its value is “induce free cholesterol storage and abnormal lipid endocytosis”.
